Where a name gives a salt, the structure may show the parent alone.
How the values were obtained:
motility = experiment: Examination of Locomotive Stimulating Effect on Motility Test
Protocol: b. Examination of Locomotive Stimulating Effect on Motility Test
The tests were performed on white mice. An intraperitoneal dosage of 500 mg./kg. of L-Dopa was administered 30 minutes after the pre-treatment with Cyproheptadine hydrochloride.

[1] = Toxicity Tests (oral, individual and joint toxicity); settings: mouse, in vivo, po; for mortality at 72 h: Perishment, %
Protocol: (§1) The toxicities of the individual components were determined separately on mice. The active agents were suspended in water containing Tween 80, and the suspension was administered orally to the animals in a dosage of 20 ml./kg. The animals were kept under observation for 72 hours. The poisoned animals perished within 48 hours.
(§2) The joint toxicity of the individual active agents was determined as follows:
(§3) a. The animals were treated with 1 g/kg. of L-Dopa. 1 hour after the administration of L-Dopa, the animals were treated with varying amounts of Cyproheptadine hydrochloride.
(§4) b. The animals were treated with 2 g./kg. of L-Dopa, and varying amounts of Cyproheptadine hydrochloride were administered subsequently.
(§5) c. The animals were treated with 3 g./kg. of L-Dopa, and subsequently Cyproheptadine hydrochloride was administered in varying amounts.
(§6) In order to evaluate the changes in toxicity, the expected toxicities of the compositions listed below were determined by constructing an isobole, and the calculated data were compared to the observed ones.

mice = experiment: as above
Protocol: as §1, §2, §3, §4, §5, §6

hexobarbital narcosis = experiment: Examination of Sedative Effects, Hexobarbital Narcosis Test; settings: for Positive animals/treated animals: positive = sleep higher by at least 150% than control
Protocol: The side effects of the individual active agents as well as those of the compositions were examined as follows:
Examination of Sedative Effects on Mice, According to the Hexobarbital Narcosis Test
The compounds to be tested were suspended in water containing Tween 80, and 20 ml./kg. dosages of the obtained suspensions were administered orally to the test animals.

[2] = tested on: Perphenazine-induced catalepsy; experiment: Antagonism of Perphenazine-induced Catalepsy; assay type: in vivo, white rats
Protocol: The synergistic increase in the antiparkinson effect was investigated by studying the inhibition of Oxotremorine-induced tremor and the antagonism of Perphenazine-induced catalepsy.
The tests were performed on white rats of both sexes, each weighing 150 to 200 g. The animals were treated orally with varying amounts of Cyproheptadine hydrochloride or L-Dopa, respectively, and 30 minutes after the introduction of the active agents the animals were treated with a standard dosage of Perphenazine [2-chloro-10-(3-/4-(2-hydroxy-ethyl)-1-piperazinyl/-propyl)-phenothiazine]. The percentage of catalepsy inhibition was examined as a function of the time.
The interaction of the active agents was studied on white rats, according to the method described above. Cyproheptadine hydrochloride was administered in oral dosages of 2 or 4 mg./kg., respectively. 30 minutes after the introduction of Cyproheptadine hydrochloride the animals were treated with varying amounts of L-Dopa, and after an additional period of 30 minutes the animals were treated with a standard dosage of Perphenazine.

[3] = tested on: Oxotremorine-induced tremor; experiment: Inhibition of Oxotremorine-induced Tremor; assay type: in vivo, mice; settings: for ED50 found: 30 min; for ED50 calculated: expected from isobole
Protocol: The tests were performed on mice of both sexes, each weighing 20 to 30 g. The groups consisted of 20 animals each. The test animals were treated orally with varying amounts of Cyproheptadine hydrochloride or L-Dopa, respectively.
30 minutes after the administration of L-Dopa, varying amounts of Cyproheptadine hydrochloride were introduced, and after further 30 minutes the animals were treated with a standard dosage of Oxotremorine.
In a further series of tests the animals were treated with 1 mg./kg. of Cyproheptadine hydrochloride. 30 minutes after the administration of Cyproheptadine hydrochloride, L-Dopa was introduced in varying amounts, and after a further period of 30 minutes the animals were treated with a standard dosage of Oxotremorine.
The expected ED50 values were determined by constructing an isobole, and the expected values were compared to the observed ones.

[4] = physiological saline p.o. + L-Dopa 500 mg./kg. i.p.
[5] = L-Dopa after 1 mg./kg. Cyproheptadine HCl
[6] = Cyproheptadine HCl 2.5 mg./kg. p.o. + physiological saline i.p.
[7] = Cyproheptadine hydrochloride 10 mg./kg. oral
[8] = Cyproheptadine hydrochloride 20 mg./kg. oral
[9] = Table 5, Cyproheptadine HCl 2 mg./kg. alone
[10] = Table 5, Cyproheptadine HCl 4 mg./kg. alone
[11] = Cyproheptadine hydrochloride after 200 mg./kg. L-Dopa

For N[C@@H](Cc1ccc(O)c(O)c1)C(=O)O [L-Dopa, L-3,4-dihydroxyphenylalanine], the “Average No. of light interruptions” value (motility; [4]) was 465, the Change % (motility; [4]) was “+105%” and the LD50 at 72 h [1] was 4200 mg/kg. For the same compound, the “influence on toxicity of the other agent (in words)” value (mice; pre-treatments with 1 and 2 g./kg. of L-dopa) was “hardly influence the toxicity of Cyproheptadine hydrochloride”, the “% positive animals” value (hexobarbital narcosis; 520 mg./kg. oral) was 0% and the “% positive animals” value (hexobarbital narcosis; 800 mg./kg. oral) was 16.6%. For the same compound, the “% positive animals” value (hexobarbital narcosis; 1200 mg./kg. oral) was 83%, the “Percentage inhibition after 0.5 hours” value ([2]; L-Dopa 100 mg./kg. oral) was 2% and the “Percentage inhibition after 1 hours” value ([2]; L-Dopa 100 mg./kg. oral) was 15%. The “Percentage inhibition after 2 hours” value ([2]; L-Dopa 100 mg./kg. oral) was 18%, the “Percentage inhibition after 3 hours” value ([2]; L-Dopa 100 mg./kg. oral) was 18% and the “Percentage inhibition after 4 hours” value ([2]; L-Dopa 100 mg./kg. oral) was 10%. For the same compound, the “Percentage inhibition after 0.5 hours” value ([2]; L-Dopa 200 mg./kg. oral) was 0%, the “Percentage inhibition after 1 hours” value ([2]; L-Dopa 200 mg./kg. oral) was 23% and the “Percentage inhibition after 2 hours” value ([2]; L-Dopa 200 mg./kg. oral) was 23%. The “Percentage inhibition after 3 hours” value ([2]; L-Dopa 200 mg./kg. oral) was 3%, the “Percentage inhibition after 4 hours” value ([2]; L-Dopa 200 mg./kg. oral) was 5% and the “Percentage inhibition after 0.5 hours” value ([2]; L-Dopa 400 mg./kg. oral) was 27%. The “Percentage inhibition after 1 hours” value ([2]; L-Dopa 400 mg./kg. oral) was 33%, the “Percentage inhibition after 2 hours” value ([2]; L-Dopa 400 mg./kg. oral) was 32% and the “Percentage inhibition after 3 hours” value ([2]; L-Dopa 400 mg./kg. oral) was 20%. The “Percentage inhibition after 4 hours” value ([2]; L-Dopa 400 mg./kg. oral) was 10%, the “Inhibition, %” value ([3]; L-Dopa 50 mg./kg. after 1 mg./kg. Cyproheptadine hydrochloride) was 15% and the “Inhibition, %” value ([3]; L-Dopa 100 mg./kg. after 1 mg./kg. Cyproheptadine hydrochloride) was 52.5%. The “Inhibition, %” value ([3]; L-Dopa 200 mg./kg. after 1 mg./kg. Cyproheptadine hydrochloride) was 67.5%, the “Inhibition, %” value ([3]; L-Dopa 400 mg./kg. after 1 mg./kg. Cyproheptadine hydrochloride) was 85% and the “Difference (percentage deviation of ED50 calculated vs. found)” value [3, 5] was “+117%”. It also gave an ED50 found [3, 5] of 120 mg/kg and an ED50 calculated [3, 5] of 260 mg/kg.

With CN1CCC(=C2c3ccccc3C=Cc3ccccc32)CC1 [Cyproheptadine HCl] the “Average No. of light interruptions” value (motility; [6]) was 145, the Change % (motility; [6]) was -36% and the “influence on locomotive stimulating effect of L-Dopa (in words)” value (motility; in the tested dosages, conclusion from Table 9) was “does not influence the locomotive stimulating effect of L-Dopa”. For the same compound, the LD50 at 72 h [1] was 135 mg/kg, the mortality at 72 h ([1]; 40 mg/kg, 40 mg./kg., after 3 g./kg. L-Dopa) was 5% and the mortality at 72 h ([1]; 60 mg/kg, 60 mg./kg., after 2 g./kg. L-Dopa) was 0%. It also gave a mortality at 72 h ([1]; 60 mg/kg, 60 mg./kg., after 3 g./kg. L-Dopa) of 25%, a mortality at 72 h ([1]; 90 mg/kg, 90 mg./kg., 1 hour after 1 g/kg. L-Dopa) of 10% and a mortality at 72 h ([1]; 90 mg/kg, 90 mg./kg., after 2 g./kg. L-Dopa) of 10%. It also gave a mortality at 72 h ([1]; 90 mg/kg, 90 mg./kg., after 3 g./kg. L-Dopa) of 45%, a mortality at 72 h ([1]; 200 mg/kg, 200 mg./kg., 1 hour after 1 g/kg. L-Dopa) of 70% and a mortality at 72 h ([1]; 200 mg/kg, 200 mg./kg., after 2 g./kg. L-Dopa) of 85%. For the same compound, the mortality at 72 h ([1]; 200 mg/kg, 200 mg./kg., after 3 g./kg. L-Dopa) was 75%, the mortality at 72 h ([1]; 300 mg/kg, 300 mg./kg., 1 hour after 1 g/kg. L-Dopa) was 95% and the Perished animals/treated animals (mice; 40 mg./kg., after 3 g./kg. L-Dopa) was 1/20. The Perished animals/treated animals (mice; 60 mg./kg., after 2 g./kg. L-Dopa) was 0/20, the Perished animals/treated animals (mice; 60 mg./kg., after 3 g./kg. L-Dopa) was 5/20 and the Perished animals/treated animals (mice; 90 mg./kg., 1 hour after 1 g/kg. L-Dopa) was 2/20. For the same compound, the Perished animals/treated animals (mice; 90 mg./kg., after 2 g./kg. L-Dopa) was 2/20, the Perished animals/treated animals (mice; 90 mg./kg., after 3 g./kg. L-Dopa) was 9/20 and the Perished animals/treated animals (mice; 200 mg./kg., 1 hour after 1 g/kg. L-Dopa) was 14/20. The Perished animals/treated animals (mice; 200 mg./kg., after 2 g./kg. L-Dopa) was 17/20, the Perished animals/treated animals (mice; 200 mg./kg., after 3 g./kg. L-Dopa) was 15/20 and the Perished animals/treated animals (mice; 300 mg./kg., 1 hour after 1 g/kg. L-Dopa) was 19/20. For the same compound, the “% positive animals” value (hexobarbital narcosis; 2.5 mg./kg. oral) was 33%, the Positive animals/treated animals (hexobarbital narcosis; 2.5 mg./kg. oral) was 6/18 and the “% positive animals” value (hexobarbital narcosis; 5.0 mg./kg. oral) was 66%. The Positive animals/treated animals (hexobarbital narcosis; 5.0 mg./kg. oral) was 4/6, the “% positive animals” value (hexobarbital narcosis; 10.0 mg./kg. oral) was 83% and the Positive animals/treated animals (hexobarbital narcosis; 10.0 mg./kg. oral) was 5/6. The “Percentage inhibition after 0.5 hours” value [2, 7] was 89%, the “Percentage inhibition after 1 hours” value [2, 7] was 72% and the “Percentage inhibition after 2 hours” value [2, 7] was 61%. The “Percentage inhibition after 3 hours” value [2, 7] was 57%, the “Percentage inhibition after 0.5 hours” value [2, 8] was 76% and the “Percentage inhibition after 1 hours” value [2, 8] was 77%. For the same compound, the “Percentage inhibition after 2 hours” value [2, 8] was 73%, the “Percentage inhibition after 3 hours” value [2, 8] was 59% and the “Percentage inhibition after 0.5 hours” value [2, 9] was 37%. For the same compound, the “Percentage inhibition after 1 hours” value [2, 9] was 8%, the “Percentage inhibition after 2 hours” value [2, 9] was 14% and the “Percentage inhibition after 3 hours” value [2, 9] was 8%. The “Percentage inhibition after 0.5 hours” value [2, 10] was 20%, the “Percentage inhibition after 1 hours” value [2, 10] was 10% and the “Percentage inhibition after 2 hours” value [2, 10] was 14%. The “Percentage inhibition after 3 hours” value [2, 10] was 18%, the “Inhibition, %” value ([3]; 0.2 mg./kg. after 200 mg./kg. L-Dopa pre-treatment) was 0% and the “Inhibition, %” value ([3]; 0.4 mg./kg. after 200 mg./kg. L-Dopa pre-treatment) was 20%. For the same compound, the “Inhibition, %” value ([3]; 0.8 mg./kg. after 200 mg./kg. L-Dopa pre-treatment) was 50%, the “Inhibition, %” value ([3]; 1.6 mg./kg. after 200 mg./kg. L-Dopa pre-treatment) was 90% and the “Difference (percentage deviation of ED50 calculated vs. found)” value [3, 11] was “+107%”. It also gave an ED50 found [3, 11] of 0.7 mg/kg, an ED50 ([3]; Mus musculus, 0.5 h, Cyproheptadine hydrochloride alone, oral, 30 min before Oxotremorine) of 3 mg/kg and an ED50 calculated [3, 11] of 1.45 mg/kg.

— patent US3988461A, “Pharmaceutical composition for the treatment of Parkinson's disease” (priority 1974, dated 1976)
